Test results as given in PubChem BioAssay AID1963862 (Molecular Pharmacology Branch, DTP, NCI, 2024).

System: KRAS patient-derived spheroids with HUVEC/MSC, viability
Assay: Anticancer human tumor 941728-121-R-J1-PDC patient-derived lung adenocarcinoma cell line growth inhibition [KRAS2]
Conditions: for IC50: curve of first compound; for viability, T/C: stronger effect = lower value
Summary of the method: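 KRAS-mutant tumor cells were grown as spheroids with HUVEC endothelial cells and human MSCs as stroma. Targeted agents were tested alone and with KRAS pathway inhibitors. Doses started at or near clinical Cmax, or 10 microM, descending half-log.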

[1] = second compound 0.1 µM, first compound 0.0316 µM
[2] = second compound 0.1 µM, first compound 0.1 µM
[3] = second compound 0.1 µM, first compound 0.316 µM
[4] = second compound 0.1 µM, first compound 1 µM
[5] = second compound 0.1 µM, first compound 3.16 µM
[6] = second compound 0.1 µM, first compound 10 µM
[7] = second compound 0.316 µM, first compound 0.0316 µM
[8] = second compound 0.316 µM, first compound 0.1 µM
[9] = second compound 0.316 µM, first compound 0.316 µM
[10] = second compound 0.316 µM, first compound 1 µM
[11] = second compound 0.316 µM, first compound 3.16 µM
[12] = second compound 0.316 µM, first compound 10 µM
[13] = second compound 1 µM, first compound 0.0316 µM
[14] = second compound 1 µM, first compound 0.1 µM
[15] = second compound 1 µM, first compound 0.316 µM
[16] = second compound 1 µM, first compound 1 µM
[17] = second compound 1 µM, first compound 3.16 µM
[18] = second compound 1 µM, first compound 10 µM
[19] = second compound 3.16 µM, first compound 0.0316 µM
[20] = second compound 3.16 µM, first compound 0.1 µM
[21] = second compound 3.16 µM, first compound 0.316 µM
[22] = second compound 3.16 µM, first compound 1 µM
[23] = second compound 3.16 µM, first compound 3.16 µM
[24] = second compound 3.16 µM, first compound 10 µM
[25] = second compound 10 µM, first compound 0.0316 µM
[26] = second compound 10 µM, first compound 0.1 µM
[27] = second compound 10 µM, first compound 0.316 µM
[28] = second compound 10 µM, first compound 1 µM
[29] = second compound 10 µM, first compound 3.16 µM
[30] = second compound 10 µM, first compound 10 µM
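Further: spheroids exposed to agents for seven days before readout.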

COc1cc(Nc2ncc3c(n2)-c2ccc(Cl)cc2C(c2c(F)cccc2OC)=NC3)ccc1C(=O)O + CNCc1ccccc1-c1csc(C(C)Nc2nc(C)nc3cc(OC)c(OC)cc23)c1
IC50 (second compound 0.1 µM): < 31.6 nM
IC50 (second compound 0.316 µM): < 31.6 nM
IC50 (second compound 1 µM): < 31.6 nM
IC50 (second compound 3.16 µM): < 31.6 nM
IC50 (second compound 10 µM): < 31.6 nM
viability, T/C [1]: 48.4%
viability, T/C [2]: 47.5%
viability, T/C [3]: 37.5%
viability, T/C [4]: 45.4%
viability, T/C [5]: 47.6%
viability, T/C [6]: 34.7%
viability, T/C [7]: 44.2%
viability, T/C [8]: 36%
viability, T/C [9]: 32.6%
viability, T/C [10]: 32.2%
viability, T/C [11]: 36.4%
viability, T/C [12]: 33.6%
viability, T/C [13]: 31.4%
viability, T/C [14]: 28.4%
viability, T/C [15]: 27.3%
viability, T/C [16]: 27.5%
viability, T/C [17]: 25.6%
viability, T/C [18]: 15.1%
viability, T/C [19]: 0.4%
viability, T/C [20]: 0.28%
viability, T/C [21]: 0.18%
viability, T/C [22]: 0.33%
viability, T/C [23]: 0.26%
viability, T/C [24]: 4.13%
viability, T/C [25]: 0.15%
viability, T/C [26]: 0.22%
viability, T/C [27]: 0.1%
viability, T/C [28]: 0.1%
viability, T/C [29]: 0.11%
viability, T/C [30]: 0.5%

COc1cc2nccc(Oc3ccc(NC(=O)C4(C(=O)Nc5ccc(F)cc5)CC4)cc3)c2cc1OC + CNCc1ccccc1-c1csc(C(C)Nc2nc(C)nc3cc(OC)c(OC)cc23)c1
IC50 (second compound 0.1 µM): 85.5 nM
IC50 (second compound 0.316 µM): < 31.6 nM
IC50 (second compound 1 µM): < 31.6 nM
IC50 (second compound 3.16 µM): < 31.6 nM
IC50 (second compound 10 µM): < 31.6 nM
viability, T/C [1]: 59.8%
viability, T/C [2]: 46.5%
viability, T/C [3]: 42.2%
viability, T/C [4]: 39.7%
viability, T/C [5]: 19.2%
viability, T/C [6]: 39.2%
viability, T/C [7]: 39%
viability, T/C [8]: 34.5%
viability, T/C [9]: 28.8%
viability, T/C [10]: 21.3%
viability, T/C [11]: 12.4%
viability, T/C [12]: 25.4%
viability, T/C [13]: 16.1%
viability, T/C [14]: 21%
viability, T/C [15]: 10.2%
viability, T/C [16]: 5.77%
viability, T/C [17]: 2.51%
viability, T/C [18]: 8.64%
viability, T/C [19]: 0.1%
viability, T/C [20]: 0.43%
viability, T/C [21]: 0.05%
viability, T/C [22]: 0.1%
viability, T/C [23]: 0.03%
viability, T/C [24]: 0.12%
viability, T/C [25]: 0.36%
viability, T/C [26]: 0.07%
viability, T/C [27]: 0.08%
viability, T/C [28]: 0.08%
viability, T/C [29]: 0.31%
viability, T/C [30]: 0.21%

O=C(c1cc(Cc2n[nH]c(=O)c3ccccc23)ccc1F)N1CCN(C(=O)C2CC2)CC1 + CNCc1ccccc1-c1csc(C(C)Nc2nc(C)nc3cc(OC)c(OC)cc23)c1
IC50 (second compound 0.1 µM): > 10000 nM
IC50 (second compound 0.316 µM): < 31.6 nM
IC50 (second compound 1 µM): < 31.6 nM
IC50 (second compound 3.16 µM): < 31.6 nM
IC50 (second compound 10 µM): < 31.6 nM
viability, T/C [1]: 59%
viability, T/C [2]: 65.2%
viability, T/C [3]: 53.3%
viability, T/C [4]: 54.6%
viability, T/C [5]: 65.6%
viability, T/C [6]: 67.8%
viability, T/C [7]: 47.1%
viability, T/C [8]: 45.5%
viability, T/C [9]: 52.7%
viability, T/C [10]: 55.1%
viability, T/C [11]: 51.4%
viability, T/C [12]: 67%
viability, T/C [13]: 40.2%
viability, T/C [14]: 48%
viability, T/C [15]: 47.3%
viability, T/C [16]: 51.7%
viability, T/C [17]: 49.8%
viability, T/C [18]: 58.5%
viability, T/C [19]: 0.61%
viability, T/C [20]: 1.87%
viability, T/C [21]: 0.81%
viability, T/C [22]: 0.22%
viability, T/C [23]: 2.29%
viability, T/C [24]: 0.22%
viability, T/C [25]: 0.42%
viability, T/C [26]: 0.09%
viability, T/C [27]: 0.09%
viability, T/C [28]: 0.09%
viability, T/C [29]: 0.2%
viability, T/C [30]: 0.14%
